Laboratory results from PubChem BioAssay AID248 (DTP/NCI, 2004).
Values joined by “and” are separate entries in the source; they are usually repeats but may differ in a detail not shown here. Equal values may be shown once. Toxic doses and inconclusive results are not listed. Rule as the data show it: active = T/C of 150% or more; inactive = T/C below 125%.

System: L1210 leukemia ip in BDF1 mice, survival T/C
Test: NCI In Vivo Anticancer Drug Screen. Data for tumor model L1210 Leukemia (intraperitoneal) in B6D2F1 (BDF1) mice
Conditions: endpoint: mean survival time, higher = longer survival
Procedure, shortened: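 Ratio derived from survival: compound-dosed mice over vehicle-dosed mice, all bearing a transplantable tumor.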

[1] = dose: 100.0 mg/kg/injection, schedule: Q01DX009 (ip), vehicle: saline with Tween-80
[2] = dose: 100.0 mg/kg/injection, schedule: Q04DX003 (ip), vehicle: saline with Tween-80
[3] = dose: 200.0 mg/kg/injection, schedule: Q04DX003 (ip), vehicle: saline with Tween-80
[4] = dose: 400.0 mg/kg/injection, schedule: Q04DX002 (ip), vehicle: saline with Tween-80
[5] = dose: 200.0 mg/kg/injection, schedule: Q01DX001 (ip), vehicle: other
[6] = dose: 400.0 mg/kg/injection, schedule: Q01DX001 (ip), vehicle: other
[7] = dose: 50.0 mg/kg/injection, schedule: Q01DX001 (ip), vehicle: carboxymethylcellulose (CMC)
[8] = dose: 100.0 mg/kg/injection, schedule: Q01DX001 (ip), vehicle: carboxymethylcellulose (CMC)
[9] = dose: 200.0 mg/kg/injection, schedule: Q01DX001 (ip), vehicle: carboxymethylcellulose (CMC)
[10] = dose: 400.0 mg/kg/injection, schedule: Q01DX001 (ip), vehicle: carboxymethylcellulose (CMC)
[11] = dose: 100.0 mg/kg/injection, schedule: Q01DX001 (ip), vehicle: saline with Tween-80
[12] = dose: 200.0 mg/kg/injection, schedule: Q01DX001 (ip), vehicle: saline with Tween-80
[13] = dose: 400.0 mg/kg/injection, schedule: Q01DX001 (ip), vehicle: saline with Tween-80
[14] = dose: 400.0 mg/kg/injection, schedule: Q04DX003 (ip), vehicle: saline with Tween-80
[15] = dose: 200.0 mg/kg/injection, schedule: Q01DX009 (ip), vehicle: saline with Tween-80
[16] = dose: 400.0 mg/kg/injection, schedule: Q01DX009 (ip), vehicle: saline with Tween-80
[17] = dose: 100.0 mg/kg/injection, schedule: Q04DX003 (ip), vehicle: saline
[18] = dose: 100.0 mg/kg/injection, schedule: Q01DX001 (ip), vehicle: saline
[19] = dose: 200.0 mg/kg/injection, schedule: Q01DX001 (ip), vehicle: saline
[20] = dose: 100.0 mg/kg/injection, schedule: Q04DX002 (ip), vehicle: saline with Tween-80
[21] = dose: 200.0 mg/kg/injection, schedule: Q04DX002 (ip), vehicle: saline with Tween-80
[22] = dose: 100.0 mg/kg/injection, schedule: Q01DX009 (ip), vehicle: saline
[23] = dose: 200.0 mg/kg/injection, schedule: Q01DX009 (ip), vehicle: saline

Measured: T/C

C=CCN(CC=C)c1nc(OC)nc(OC)n1
inactive: dose: 25.0 mg/kg/injection, schedule: Q01DX009 (ip), vehicle: saline with Tween-80 92 % of control | dose: 25.6 mg/kg/injection, schedule: Q04DX002 (ip), vehicle: saline with Tween-80 97 % of control | dose: 50.0 mg/kg/injection, schedule: Q01DX009 (ip), vehicle: saline with Tween-80 94 % of control | dose: 50.0 mg/kg/injection, schedule: Q04DX003 (ip), vehicle: saline with Tween-80 95 % of control | dose: 64.0 mg/kg/injection, schedule: Q04DX002 (ip), vehicle: saline with Tween-80 101 % of control | [1] 94 % of control | [2] 95 % of control and 103 % of control | dose: 160.0 mg/kg/injection, schedule: Q04DX002 (ip), vehicle: saline with Tween-80 101 % of control | [3] 92 % of control | [4] 101 % of control

O=C(CCCC(=O)N/N=C/c1ccc(Cl)cc1)N/N=C\c1ccc(Cl)cc1
inactive: dose: 50.0 mg/kg/injection, schedule: Q01DX001 (ip), vehicle: other 102 % of control | [5] 91 % of control | [6] 91 % of control

CCOCCOCCOCCCNCC(=O)N1CCN(C(=O)CNCCCOCCOCCOCC)CC1
inactive: [7] 92 % of control | [8] 101 % of control | [9] 103 % of control | [10] 92 % of control

COc1ccc(C2=NNC(c3ccc(OC)cc3)=NN2)cc1
inactive: dose: 100.0 mg/kg/injection, schedule: Q01DX001 (ip), vehicle: other 104 % of control | [5] 96 % of control | [6] 93 % of control

COc1ccc(NC(=O)Nc2cc([N+](=O)[O-])ccc2F)cc1
inactive: dose: 100.0 mg/kg/injection, schedule: Q04DX003 (ip), vehicle: Klucel (hydroxypropylcellulose) (HPC) 89 % of control | dose: 200.0 mg/kg/injection, schedule: Q04DX003 (ip), vehicle: Klucel (hydroxypropylcellulose) (HPC) 89 % of control | dose: 400.0 mg/kg/injection, schedule: Q04DX003 (ip), vehicle: Klucel (hydroxypropylcellulose) (HPC) 88 % of control

COc1cc(/C=C2\CCOC2=O)c([N+](=O)[O-])cc1OC
inactive: [7] 96 % of control | [8] 94 % of control | [9] 94 % of control | [10] 90 % of control

C[n+]1ccc(/C=C/c2ccc(O)c3ccccc23)c2ccccc21
inactive: dose: 75.0 mg/kg/injection, schedule: Q01DX001 (ip), vehicle: carboxymethylcellulose (CMC) 100 % of control | dose: 150.0 mg/kg/injection, schedule: Q01DX001 (ip), vehicle: carboxymethylcellulose (CMC) 100 % of control | dose: 300.0 mg/kg/injection, schedule: Q01DX001 (ip), vehicle: carboxymethylcellulose (CMC) 115 % of control

CCCCCCOc1ccc(N=[N+]([O-])c2ccc(OCCCCCC)cc2)cc1
inactive: dose: 75.0 mg/kg/injection, schedule: Q01DX001 (ip), vehicle: other 91 % of control | dose: 150.0 mg/kg/injection, schedule: Q01DX001 (ip), vehicle: other 91 % of control | dose: 300.0 mg/kg/injection, schedule: Q01DX001 (ip), vehicle: other 87 % of control

CCOc1ccc(OCC)c(NC(=O)Nc2ccc(F)c([N+](=O)[O-])c2)c1
inactive: dose: 100.0 mg/kg/injection, schedule: Q01DX009 (ip), vehicle: Klucel (hydroxypropylcellulose) (HPC) 101 % of control | dose: 200.0 mg/kg/injection, schedule: Q01DX009 (ip), vehicle: Klucel (hydroxypropylcellulose) (HPC) 93 % of control | dose: 400.0 mg/kg/injection, schedule: Q01DX009 (ip), vehicle: Klucel (hydroxypropylcellulose) (HPC) 87 % of control

CC12CCC3(CC1CCC(OC(=O)c1ccccc1)C2)OCCO3 (centres undefined)
inactive: dose: 100.0 mg/kg/injection, schedule: Q01DX009 (ip), vehicle: other 93 % of control | dose: 100.0 mg/kg/injection, schedule: Q04DX003 (ip), vehicle: other 108 % of control | dose: 200.0 mg/kg/injection, schedule: Q01DX009 (ip), vehicle: other 95 % of control | dose: 200.0 mg/kg/injection, schedule: Q04DX003 (ip), vehicle: other 106 % of control | dose: 400.0 mg/kg/injection, schedule: Q01DX009 (ip), vehicle: other 90 % of control | dose: 400.0 mg/kg/injection, schedule: Q04DX003 (ip), vehicle: other 95 % of control

O=C(Nc1ccccc1)SCCSC(=O)Nc1ccccc1
inactive: [11] 88 % of control | [2] 97 % of control | [12] 88 % of control | [3] 88 % of control | [13] 90 % of control | [14] 87 % of control

COC1OC2COc3ccccc3OC2C(NC#N)C1O (centres undefined)
inactive: [1] 97 % of control | [15] 96 % of control | [16] 89 % of control

CC(=O)Oc1ccc2ccccc2c1/C=C/c1ccncc1
inactive: dose: 6.25 mg/kg/injection, schedule: Q01DX009 (ip), vehicle: saline 104 % of control | dose: 12.5 mg/kg/injection, schedule: Q01DX009 (ip), vehicle: saline 102 % of control | dose: 25.0 mg/kg/injection, schedule: Q01DX009 (ip), vehicle: saline 96 % of control and 105 % of control | dose: 25.0 mg/kg/injection, schedule: Q04DX003 (ip), vehicle: saline 115 % of control | dose: 50.0 mg/kg/injection, schedule: Q01DX009 (ip), vehicle: saline 95 % of control | dose: 50.0 mg/kg/injection, schedule: Q04DX003 (ip), vehicle: saline 93 % of control | [17] 94 % of control and 90 % of control

CC(=O)OCC1OCOC2C(C(N)=O)OCOC12 (centres undefined)
inactive: [18] 103 % of control | [19] 103 % of control

CC1(C)CN1P(=O)(Oc1ccccc1)N1CC1(C)C (centres undefined)
inactive: dose: 88.0 mg/kg/injection, schedule: Q01DX001 (ip), vehicle: carboxymethylcellulose (CMC) 111 % of control

CC(C)(C)NC(=O)C1C2C=CC(CC2)C1C(=O)NC(C)(C)C (centres undefined)
inactive: [2] 100 % of control | [3] 96 % of control | [14] 92 % of control

CCCCCCCCCCCCOC(=O)NCCCl
inactive: [11] 103 % of control | [12] 102 % of control | [13] 103 % of control

COc1ccc(OC)c(C(C)(O)CC(=O)O)c1 (centres undefined)
inactive: [1] 100 % of control | [2] 96 % of control | [15] 105 % of control | [3] 93 % of control | [16] 97 % of control | [14] 101 % of control

O=c1[nH]cnc2c1c(Br)cn2C1OC(CO)C(O)C1O (centres undefined)
inactive: [8] 110 % of control | [9] 112 % of control | [10] 121 % of control

CC1=CCCCC1O (centres undefined)
inactive: [20] 93 % of control | [21] 96 % of control | [4] 93 % of control

CN(C)c1nc(N)nc(Nc2ccc(Br)cc2)c1N=O
inactive: [7] 109 % of control | [8] 95 % of control | [18] 105 % of control | [22] 107 % of control | [17] 107 % of control | [9] 103 % of control | [19] 116 % of control | [23] 119 % of control | dose: 200.0 mg/kg/injection, schedule: Q04DX003 (ip), vehicle: saline 98 % of control | [10] 95 % of control | dose: 400.0 mg/kg/injection, schedule: Q01DX001 (ip), vehicle: saline 116 % of control | dose: 400.0 mg/kg/injection, schedule: Q01DX009 (ip), vehicle: saline 109 % of control | dose: 400.0 mg/kg/injection, schedule: Q04DX003 (ip), vehicle: saline 96 % of control

O=C1c2ccccc2-c2cc(Br)c([N+](=O)[O-])c(Br)c21
inactive: [8] 96 % of control | [9] 101 % of control | [10] 102 % of control

O=C(Nc1ccc(Cl)cc1[N+](=O)[O-])Oc1ccc(-c2ccccc2)cc1Cl
inactive: [11] 92 % of control | [1] 95 % of control and 91 % of control | [20] 101 % of control and 102 % of control | [2] 97 % of control | [12] 94 % of control | [15] 94 % of control and 89 % of control | [21] 101 % of control and 91 % of control | [3] 103 % of control | [13] 89 % of control | [16] 99 % of control and 103 % of control | [4] 88 % of control and 91 % of control | [14] 103 % of control

N/C(=N\O)c1ccncc1
inactive: [22] 94 % of control | [23] 96 % of control
